In patent US10280149B2, “Therapeutic compounds and uses thereof” (GENENTECH, INC., priority 2015, dated 2019) one finds IC50 data, which are given here for 43 molecules.

Where a name gives a salt, the structure may show the parent alone.

Sequence of Full length KDM2B (Q8NHM5 whole entry): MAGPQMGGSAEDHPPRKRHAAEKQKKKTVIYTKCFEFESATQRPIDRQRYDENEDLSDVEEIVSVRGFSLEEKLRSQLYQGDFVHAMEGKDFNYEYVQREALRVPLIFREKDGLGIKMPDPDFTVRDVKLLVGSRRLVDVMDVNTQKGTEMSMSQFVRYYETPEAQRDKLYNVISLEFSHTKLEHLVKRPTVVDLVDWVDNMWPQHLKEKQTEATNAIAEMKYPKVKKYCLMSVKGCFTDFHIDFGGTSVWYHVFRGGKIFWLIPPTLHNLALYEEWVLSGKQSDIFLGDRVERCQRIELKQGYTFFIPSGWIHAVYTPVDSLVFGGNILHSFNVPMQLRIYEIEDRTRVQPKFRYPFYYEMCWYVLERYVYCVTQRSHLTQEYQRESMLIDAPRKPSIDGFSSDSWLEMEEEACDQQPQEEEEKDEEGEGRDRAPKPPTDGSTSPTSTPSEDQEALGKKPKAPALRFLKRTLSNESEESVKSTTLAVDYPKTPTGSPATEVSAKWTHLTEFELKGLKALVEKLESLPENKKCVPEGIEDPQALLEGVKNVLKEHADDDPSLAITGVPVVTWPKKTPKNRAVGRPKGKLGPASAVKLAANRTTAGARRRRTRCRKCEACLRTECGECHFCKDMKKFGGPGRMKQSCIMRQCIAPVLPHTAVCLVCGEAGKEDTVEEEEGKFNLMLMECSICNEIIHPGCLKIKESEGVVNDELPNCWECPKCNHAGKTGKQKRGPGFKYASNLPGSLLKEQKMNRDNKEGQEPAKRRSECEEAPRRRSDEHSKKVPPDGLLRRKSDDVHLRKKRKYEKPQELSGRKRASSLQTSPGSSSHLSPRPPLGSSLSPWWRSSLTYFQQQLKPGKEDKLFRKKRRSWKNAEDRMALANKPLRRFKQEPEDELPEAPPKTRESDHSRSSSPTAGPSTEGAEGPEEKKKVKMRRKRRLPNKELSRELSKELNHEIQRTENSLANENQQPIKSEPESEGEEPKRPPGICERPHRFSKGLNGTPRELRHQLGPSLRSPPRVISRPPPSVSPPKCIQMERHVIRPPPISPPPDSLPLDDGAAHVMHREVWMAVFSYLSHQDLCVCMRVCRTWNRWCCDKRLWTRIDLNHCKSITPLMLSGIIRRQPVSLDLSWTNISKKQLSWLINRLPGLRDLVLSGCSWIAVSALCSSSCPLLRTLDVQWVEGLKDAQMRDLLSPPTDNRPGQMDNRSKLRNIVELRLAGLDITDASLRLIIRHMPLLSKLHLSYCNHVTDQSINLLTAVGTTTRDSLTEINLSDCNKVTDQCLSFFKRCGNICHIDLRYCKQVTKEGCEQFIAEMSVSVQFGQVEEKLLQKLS

The assay deals with Full length KDM2B (Homo sapiens (Human), UniProt Q8NHM5). Kind of assay: KDM2B TR-FRET assay for determining inhibitor IC50. The format is biochemical. The conditions noted are these: TR-FRET (HTRF), biotin-H3K36me2 peptide substrate, 2-OG 0.3 μM or 6 μM. An excerpt:
KDM2B TR-FRET Assay for Determining Inhibitor IC50
The KDM2B TR-FRET Assay described above represents an additional embodiment of the invention.
The molecule `CCC1CCN(C2CCC2)CC1C(=O)c1ccc2cc(OC)ccc2c1` (single isomer, unassigned) [Example 142c, (1-cyclobutyl-4-ethylpiperidin-3-yl)(6-methoxynaphthalen-2-yl)methanone] displayed an IC50 of 0.207 µM.
In the case of `COc1ccc2cc(C(=O)C3CN(C4CCC4)CCN3Cc3ccccc3)ccc2c1` (stereo not shown) [Example 191, (1-benzyl-4-cyclobutyl-piperazin-2-yl)-(6-methoxy-2-naphthyl)methanone] it was 0.102 µM; in that of `COc1ccc2cc(C(=O)C3CCCN(CC4CC4)C3)ccc2n1` (stereo not shown) [Example 122, (1-(cyclopropylmethyl)piperidin-3-yl)(2-methoxyquinolin-6-yl)methanone], 0.205 µM; in that of `Cc1cccc2ccc(C(=O)C3CCCN(CC4CC4)C3)cc12` (stereo not shown) [Example 59, [1-(cyclopropylmethyl)-3-piperidyl]-(8-methyl-2-naphthyl)methanone], 0.169 µM.
Regarding `COc1ccc2cc(C(=O)C3CN(C4CCC4)CCC3CC(C)C)ccc2c1` (single isomer, unassigned) [Example 144b, (1-cyclobutyl-4-isobutylpiperidin-3-yl)(6-methoxynaphthalen-2-yl)methanone], inhibition was half-maximal at 0.269 µM (IC50).
The value for `CC(O)c1cc(C(=O)C2CCCN(C3CCC3)C2)cc2ccccc12` (stereo not shown) [Example 64, (1-cyclobutyl-3-piperidyl)-[4-(1-hydroxyethyl)-2-naphthyl]methanone] was 0.0438 µM; that for `COc1ccc2cc(C(=O)C3CN(CC4CC4)CCC3OC)ccc2c1` (single isomer, unassigned) [Example 146a, (1-(cyclopropylmethyl)-4-methoxypiperidin-3-yl)(6-methoxynaphthalen-2-yl)methanone] was 0.382 µM.
The value for `COc1ccc2cc(C(=O)C3CCCN(C4CCCC4)C3)ccc2c1CC#N` (stereo not shown) [Example 54, 2-[6-(1-cyclopentylpiperidine-3-carbonyl)-2-methoxy-1-naphthyl]acetonitrile] was 0.0395 µM; that for `COc1ccc2cc(C(=O)[C@H]3CN(C4CCC4)CC[C@H]3C(C)C)ccc2c1CC#N` (stereo in doubt) [Example 186b, 2-(6-(1-cyclobutyl-4-isopropylpiperidine-3-carbonyl)-2-methoxynaphthalen-1-yl)acetonitrile] was 0.00212 µM.
The value for `CCC[C@H]1CCN(C2CCC2)C[C@@H]1C(=O)c1ccc2c(CC#N)c(OC)ccc2c1` (stereo in doubt) [Example 184d, 2-(6-(1-cyclobutyl-4-propylpiperidine-3-carbonyl)-2-methoxynaphthalen-1-yl)acetonitrile] was 0.263 µM.
Take `CN(C)C(=O)c1ccc2cc(C(=O)C3CCCN(C4CCCC4)C3)ccc2c1` (stereo not shown) [Example 178]: it took 0.188 µM to reach half-maximal inhibition (IC50).
The value for `COc1ccc2cc(C(=O)C3CCCN(C4CCC4)C3)ccc2c1` (stereo not shown) [Example 76, (1-cyclobutyl-3-piperidyl)-(6-methoxy-2-naphthyl)methanone] was 0.619 µM.
In the case of `Cc1ccc2cc(C(=O)C3CCCN(C4CCC4)C3)ccc2c1` (stereo not shown) [Example 165, (1-cyclobutylpiperidin-3-yl)(6-methylnaphthalen-2-yl)methanone hydrochloride] it was 0.163 µM.
With `O=C(c1ccc2cc(CO)ccc2c1)C1CCCN(C2CCC2)C1` (stereo not shown) [Example 153, (1-cyclobutylpiperidin-3-yl)(6-(hydroxymethyl)naphthalen-2-yl)methanone], the concentration for half-maximal inhibition (IC50) is 0.409 µM.
The value for `CCCN1CCCC(C(=O)c2cc(C(C)O)c3ccccc3c2)C1` (stereo not shown) [Example 68, [4-(1-hydroxyethyl)-2-naphthyl]-(1-propyl-3-piperidyl)methanone] was 0.0762 µM; that for `CCC[C@H]1CCN(C2CCC2)C[C@H]1C(=O)c1ccc2cc(OC)ccc2c1` (single isomer, unassigned) [Example 140c, (1-cyclobutyl-4-propylpiperidin-3-yl)(6-methoxynaphthalen-2-yl)methanone] was 0.00548 µM.
In turn, `CCCN1CCCC(C(=O)c2ccc3c(cnn3C)c2)C1` (stereo not shown) [Example 94, (1-methylindazol-5-yl)-(1-propyl-3-piperidyl)methanone] displayed an IC50 of 0.122 µM.
Molecule `CNC(=O)c1cc(C(=O)C2CCCN(C3CCCC3)C2)cc2ccccc12` (stereo not shown) [Example 41, 3-(1-cyclopentylpiperidine-3-carbonyl)-N-methyl-naphthalene-1-carboxamide] returned a half-maximal inhibitory concentration (IC50) of 0.7 µM.
With `CN(C)C(=O)c1ccc2cc(C(=O)C3CCCN(C4CCC4)C3)ccc2c1` (stereo not shown) [Example 177, 6-(1-cyclobutylpiperidine-3-carbonyl)-N,N-dimethyl-2-naphthamide], the half-inhibitory concentration (IC50) worked out at 0.113 µM.
For `O=C(c1cccc(Cl)c1)[C@@H]1CCCN(CC2CC2)C1` (stereo in doubt) [Example 118a, (3-chlorophenyl)(1-(cyclopropylmethyl)piperidin-3-yl)methanone], 6.8 µM corresponded to half-maximal inhibition (IC50).
The value for `COc1ccc(C(=O)C2CCCN(CC3CC3)C2)cc1` (single isomer, unassigned) [Example 110a, (1-(cyclopropylmethyl)piperidin-3-yl)(4-methoxyphenyl)methanone] was 2 µM; that for `CCCN1CCCC(C(=O)c2ccc3c(C)c(OC)ccc3c2)C1` (stereo not shown) [Example 50, (6-methoxy-5-methyl-2-naphthyl)-(1-propyl-3-piperidyl)methanone] was 0.026 µM.
Molecule `CCCN1CCCC(C(=O)c2cccc(N(C)C)c2)C1` (stereo not shown) [Example 90, [3-(dimethylamino)phenyl]-(1-propyl-3-piperidyl)methanone] showed an IC50 of 1.6 µM.
In the case of `O=C(c1ccc(Oc2ccccc2)cc1)[C@@H]1CCCN(CC2CC2)C1` [Example 30, [(3R)-1-(cyclopropylmethyl)-3-piperidyl]-(4-phenoxyphenyl)methanone] it was 5.9 µM; in that of `COc1ccc2cc(C(=O)[C@@H]3CN(C4CCC4)CC[C@@H]3CC(C)C)ccc2c1CC#N` (stereo in doubt) [Example 185a, 2-(6-(1-cyclobutyl-4-isobutylpiperidine-3-carbonyl)-2-methoxynaphthalen-1-yl)acetonitrile], 0.0535 µM; in that of `CCCN1CCCC(C(=O)c2ccc(OC)cc2)C1` (stereo not shown) [Example 97, (4-methoxyphenyl)-(1-propyl-3-piperidyl)methanone], 0.93 µM.
The molecule `CCC1CCN(C2CCC2)CC1C(=O)c1ccc2cc(OC)ccc2c1` (single isomer, unassigned) [Example 142b, (1-cyclobutyl-4-ethylpiperidin-3-yl)(6-methoxynaphthalen-2-yl)methanone] gave an IC50 of 0.349 µM.
As for `N#Cc1cc(C(=O)C2CCCN(C3CCC3)C2)cc2ccccc12` (stereo not shown) [Example 44, 3-(1-cyclobutylpiperidine-3-carbonyl)naphthalene-1-carbonitrile], half-maximal inhibition (IC50) required 0.101 µM.
In the case of `COc1ccc2cc(C(=O)C3CN(CC4CC4)CCC3c3ccccc3)ccc2c1` (stereo not shown) [Example 145, (1-(cyclopropylmethyl)-4-phenylpiperidin-3-yl)(6-methoxynaphthalen-2-yl)methanone] it was 0.312 µM; in that of `CCCN1CCCC(C(=O)c2cccc(OCc3ccccc3)c2)C1` (stereo not shown) [Example 95, (3-benzyloxyphenyl)-(1-propyl-3-piperidyl)methanone], 0.823 µM; in that of `Cc1ccc2cc(C(=O)C3CCCN(CC4CC4)C3)ccc2n1` (stereo not shown) [Example 173], 0.255 µM.
Take `Cc1c(C(=O)C2CCCN(CC3CC3)C2)ccc2ccccc12` (stereo not shown) [Example 115, (1-(cyclopropylmethyl)piperidin-3-yl)(1-methylnaphthalen-2-yl)methanone]: the IC50 was 0.439 µM.
In the case of `CCCN1CCCC(C(=O)c2ccc(OC)c(OC)c2)C1` (stereo not shown) [Example 104, (3,4-dimethoxyphenyl)-(1-propyl-3-piperidyl)methanone] it was 0.744 µM; in that of `COc1ccc2cc(C(=O)C3CCCN(C4COC4)C3)ccc2c1` (stereo not shown) [Example 14, (6-methoxy-2-naphthyl)-[1-(oxetan-3-yl)-3-piperidyl]methanone], 1.2 µM; in that of `COc1ccc2cc(C(=O)[C@]3(O)CCCN(CC4CC4)C3)ccc2c1` (stereo in doubt) [Example 158b, (1-(cyclopropylmethyl)-3-hydroxypiperidin-3-yl)(6-methoxynaphthalen-2-yl)methanone], 11.5 µM.
The molecule `CCC[C@@H]1CCN(C2CCC2)C[C@H]1C(=O)c1ccc2c(CC#N)c(OC)ccc2c1` (stereo in doubt) [Example 184c, 2-(6-(1-cyclobutyl-4-propylpiperidine-3-carbonyl)-2-methoxynaphthalen-1-yl)acetonitrile] yielded a concentration for half-maximal inhibition (IC50) of 0.00313 µM.
Molecule `COc1ccc(C(=O)C2CCCN(C3CCC3)C2)c(OC)c1` (stereo not shown) [Example 5, (1-cyclobutyl-3-piperidyl)-(2,4-dimethoxyphenyl)methanone] showed a half-maximal inhibitory concentration (IC50) of 2.5 µM.
The value for `O=C(c1cc2ccccc2s1)C1CCCN(CC2CC2)C1` (stereo not shown) [Example 120, Benzo[b]thiophen-2-yl(1-(cyclopropylmethyl)piperidin-3-yl)methanone] was 0.389 µM; that for `NC(=O)c1cc(C(=O)C2CCCN(C3CCC3)C2)cc2ccccc12` (stereo not shown) [Example 47, 3-(1-cyclobutylpiperidine-3-carbonyl)naphthalene-1-carboxamide] was 0.0997 µM; that for `CC[C@@H]1CCN(C2CCC2)C[C@@H]1C(=O)c1ccc2c(CC#N)c(OC)ccc2c1` (stereo in doubt) [Example 183c, 2-(6-(1-cyclobutyl-4-ethylpiperidine-3-carbonyl)-2-methoxynaphthalen-1-yl)acetonitrile] was 0.078 µM.
The value for `COc1ccc2cc(C(=O)[C@@H]3CCCN(CC4CC4)C3)ccc2c1` [Example 7, [(3R)-1-(cyclopropylmethyl)-3-piperidyl]-(6-methoxy-2-naphthyl)methanone] was 0.123 µM; that for `C[C@@H]1CCN(C2CCCC2)C[C@H]1C(=O)c1ccc2cc(C#N)ccc2c1` (stereo in doubt) [Example 162b, 6-(1-cyclopentyl-4-methylpiperidine-3-carbonyl)-2-naphthonitrile] was 0.0857 µM; that for `COc1ccc2cc(C(=O)C3CCCN(CC4CC4)C3)ccc2c1` (stereo not shown) [Example 77, [1-(cyclopropylmethyl)-3-piperidyl]-(6-methoxy-2-naphthyl)methanone] was 0.208 µM.
